From patent US20080280991A1, “SUBSTITUTED NAPHTHALENES” (AUSPEX PHARMACEUTICALS, INC., priority 2007, published 2008)

Legend:
[1] = In vitro liver microsomal stability assay; format: in vitro ADME; conditions: 1 mg per mL liver microsome protein, NADPH-generating system, 5 microgram per mL compound, 37° C., 0-60 min, LC/MS/MS
Method: Liver microsomal stability assays are conducted at 1 mg per mL liver microsome protein with an NADPH-generating system in 2% NaHCO3 (2.2 mM NADPH, 25.6 mM glucose 6-phosphate, 6 units per mL glucose 6-phosphate dehydrogenase and 3.3 mM MgCl2). Test compounds are prepared as solutions in 20% acetonitrile-water and added to the assay mixture (final assay concentration 5 microgram per mL) and incubated at 37° C. Final concentration of acetonitrile in the assay should be <1%. Aliquots ([…]) are taken out at times 0, 15, 30, 45, and 60 min, and diluted with ice cold acetonitrile (200 μL) to stop the reactions. Samples are centrifuged at 12,000 RPM for 10 min to precipitate proteins. Supernatants are transferred to microcentrifuge tubes and stored for LC/MS/MS analysis of the degradation half-life of the test compounds. […] For example, the degradation half-life of Example 9 was increased by 20% as compared to non-isotopically enriched agomelatine.

melatonin receptor = conditions: relative to agomelatine; cited from earlier work
[2] = in vivo; cited from earlier work

With [2H]C([2H])([2H])Oc1ccc2cccc(C([2H])([2H])C([2H])([2H])NC(=O)C([2H])([2H])[2H])c2c1 [Example 9, d10-N-[2-(7-Methoxy-naphthalen-1-yl)-ethyl]-acetamide] the “increase in the degradation half-life as compared to the non-isotopically enriched drug (agomelatine)” value [1] was 20%.

For CC(=O)NCCc1cccc2ccc(O)cc12 [S 21517], the “fold less potency for the melatonin receptor than the parent compound (agomelatine)” value (melatonin receptor) is listed as 100 fold.

For COc1ccc2cccc(CCNC(C)=O)c2c1 [agomelatine, N-[2-(7-Methoxy-naphthalen-1-yl)-ethyl]-acetamide], the terminal elimination half-life [2] is listed as 2.3 h.
